Holding throughout (assay): KAM-matrix competition in K562 lysate
Holding throughout (type): binding

The target of test [1] is T1, EPHB6 (Homo sapiens, UniProt O15197).
T1 construct: endogenous in cells; host or cells: K562
T1 sequence (O15197 32-1021): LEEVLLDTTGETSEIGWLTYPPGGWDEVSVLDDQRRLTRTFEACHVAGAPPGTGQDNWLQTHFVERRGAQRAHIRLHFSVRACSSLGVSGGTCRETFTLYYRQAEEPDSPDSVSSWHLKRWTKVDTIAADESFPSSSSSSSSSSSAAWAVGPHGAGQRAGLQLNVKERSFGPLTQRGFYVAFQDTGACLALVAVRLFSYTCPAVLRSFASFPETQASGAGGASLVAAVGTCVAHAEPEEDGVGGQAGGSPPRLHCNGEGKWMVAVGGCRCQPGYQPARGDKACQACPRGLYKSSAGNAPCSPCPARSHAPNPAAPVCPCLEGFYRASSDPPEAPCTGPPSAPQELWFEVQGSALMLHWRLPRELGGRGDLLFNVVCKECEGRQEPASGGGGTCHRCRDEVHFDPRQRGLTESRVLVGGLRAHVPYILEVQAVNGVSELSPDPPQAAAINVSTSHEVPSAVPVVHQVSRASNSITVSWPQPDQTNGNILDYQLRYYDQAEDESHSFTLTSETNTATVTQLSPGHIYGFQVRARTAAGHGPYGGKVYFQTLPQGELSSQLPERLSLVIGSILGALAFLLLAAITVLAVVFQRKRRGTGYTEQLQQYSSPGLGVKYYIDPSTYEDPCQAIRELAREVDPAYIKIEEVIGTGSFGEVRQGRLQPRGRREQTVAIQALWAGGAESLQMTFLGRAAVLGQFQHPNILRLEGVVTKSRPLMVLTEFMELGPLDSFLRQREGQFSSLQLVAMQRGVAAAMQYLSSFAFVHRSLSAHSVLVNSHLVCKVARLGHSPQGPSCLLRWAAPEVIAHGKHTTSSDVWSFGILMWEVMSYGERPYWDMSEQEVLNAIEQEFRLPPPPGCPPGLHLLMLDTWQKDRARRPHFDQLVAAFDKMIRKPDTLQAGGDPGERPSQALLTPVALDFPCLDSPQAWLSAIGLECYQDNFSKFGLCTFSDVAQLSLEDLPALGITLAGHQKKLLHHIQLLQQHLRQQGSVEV
As for the experimental part: (§1) Supplement 12953_2017_125_MOESM1_ESM.zip/MS_Supp Info.xlsx, sheet "KAM" | column: 10 uM KAM; 1 uM KAM; 0.1 uM KAM; 0.01 uM KAM; 0.001 uM KAM; RB50

The target of test [2] is T2, MAP3K3 (Homo sapiens, UniProt Q99759).
T2 construct: endogenous in cells; host or cells: K562 cell lysate
T2 sequence (Q99759 1-626): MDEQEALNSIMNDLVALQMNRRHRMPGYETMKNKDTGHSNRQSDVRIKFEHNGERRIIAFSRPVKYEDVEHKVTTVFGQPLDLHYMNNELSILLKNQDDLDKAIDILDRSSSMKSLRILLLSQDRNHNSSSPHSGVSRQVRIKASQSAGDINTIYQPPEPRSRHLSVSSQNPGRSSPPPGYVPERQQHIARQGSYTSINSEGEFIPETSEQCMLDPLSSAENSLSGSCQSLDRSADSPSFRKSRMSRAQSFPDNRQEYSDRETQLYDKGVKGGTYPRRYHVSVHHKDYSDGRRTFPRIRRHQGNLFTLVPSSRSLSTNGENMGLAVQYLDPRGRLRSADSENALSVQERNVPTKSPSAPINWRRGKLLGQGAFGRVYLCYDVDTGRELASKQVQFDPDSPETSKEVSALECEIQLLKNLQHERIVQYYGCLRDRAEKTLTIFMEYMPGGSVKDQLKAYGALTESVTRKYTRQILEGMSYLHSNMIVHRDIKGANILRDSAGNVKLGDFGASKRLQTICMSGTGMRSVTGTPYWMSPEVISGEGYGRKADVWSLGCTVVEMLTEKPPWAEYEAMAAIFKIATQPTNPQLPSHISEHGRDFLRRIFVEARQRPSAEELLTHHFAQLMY
As for the experimental part: as §1

Test [3] has as its target T3, PLK4 (Homo sapiens, UniProt O00444).
T3 construct: endogenous in cells; host or cells: K562
T3 sequence (O00444 1-970): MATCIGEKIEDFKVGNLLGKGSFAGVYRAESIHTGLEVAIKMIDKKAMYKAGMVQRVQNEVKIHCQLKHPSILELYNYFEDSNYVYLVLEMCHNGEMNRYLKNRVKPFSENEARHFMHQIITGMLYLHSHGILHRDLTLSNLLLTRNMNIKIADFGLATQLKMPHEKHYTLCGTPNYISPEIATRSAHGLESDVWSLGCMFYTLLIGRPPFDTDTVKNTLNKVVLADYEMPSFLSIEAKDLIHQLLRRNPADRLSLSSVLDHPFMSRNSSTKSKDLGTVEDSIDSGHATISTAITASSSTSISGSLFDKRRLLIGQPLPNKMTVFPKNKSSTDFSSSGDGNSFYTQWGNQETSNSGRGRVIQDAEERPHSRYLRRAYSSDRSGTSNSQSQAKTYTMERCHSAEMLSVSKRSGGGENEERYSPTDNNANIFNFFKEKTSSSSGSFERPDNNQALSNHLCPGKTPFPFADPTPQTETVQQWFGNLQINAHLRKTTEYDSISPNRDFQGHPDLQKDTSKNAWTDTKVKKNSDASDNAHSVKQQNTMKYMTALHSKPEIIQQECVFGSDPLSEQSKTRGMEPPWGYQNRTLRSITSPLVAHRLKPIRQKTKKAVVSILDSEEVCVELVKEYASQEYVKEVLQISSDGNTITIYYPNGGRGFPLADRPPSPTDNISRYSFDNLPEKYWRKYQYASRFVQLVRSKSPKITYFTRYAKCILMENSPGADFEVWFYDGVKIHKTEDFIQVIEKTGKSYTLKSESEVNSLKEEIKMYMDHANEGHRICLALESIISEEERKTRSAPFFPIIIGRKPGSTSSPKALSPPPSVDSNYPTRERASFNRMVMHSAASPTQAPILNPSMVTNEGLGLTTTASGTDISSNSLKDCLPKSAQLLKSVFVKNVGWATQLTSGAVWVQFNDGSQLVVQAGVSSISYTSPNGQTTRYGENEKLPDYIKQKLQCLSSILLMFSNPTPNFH
As for the experimental part: as §1

Setting [4] is: read-out: RB50 (the source's name).

Turning to `N#CCc1ccc(Nc2nc(NCCCN)cc(Nc3cc(C4CC4)[nH]n3)n2)cc1` [KAM], the “median Log10 fold change” value is -0.01655 in test [1] (0.001 uM KAM); -0.02112 in test [1] (0.01 uM KAM); -0.1129 in test [1] (0.1 uM KAM); -0.2258 in test [1] (1 uM KAM); -0.3985 in test [1] (10 uM KAM); -0.04647 in test [2] (0.001 uM KAM). Besides, the “median Log10 fold change” value in test [2] (0.01 uM KAM) is listed as 0.002946; in test [2] (0.1 uM KAM) it was -0.1524; in test [2] (1 uM KAM), -0.3206; in test [2] (10 uM KAM), -0.4381; in test [3] (0.001 uM KAM), -0.0157; in test [3] (0.01 uM KAM) it was 0.006981. Further, the “median Log10 fold change” value in test [3] (0.1 uM KAM) is recorded as -0.1724; in test [3] (1 uM KAM), -0.3044; in test [3] (10 uM KAM), -0.3267. Besides, the IC50 in test [1] (setting [4]) turned out to be 2510 nM; in test [2] (setting [4]) it was 1000 nM; in test [3] (setting [4]) it was 1400 nM.

The values are drawn from PMC5513037, “Examining the influence of specificity ligands and ATP-competitive ligands on the overall effectiveness of bivalent kinase inhibitors” (Proteome Science, 2017).
